ChEMBL document CHEMBL1201862, “PubChem BioAssay data set” (2004)
One block for each molecule: values may come before it. Active and inactive are the calls of the source.

What was measured:
[1] = target: T1, Bcl-2-like protein 10 (Homo sapiens, UniProt Q9HD36); assay: Bcl-B/TR3 peptide binding disruption – biochemical, fluorescence polarization, FITC-TR3 peptide, selectivity assay for Bfl-1 inhibitor project, primary screen (AID 748);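 further: fluorescence polarization from a fluorescein-labelled TR3 peptide binding purified Bcl-B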
T1 sequence (Q9HD36 whole entry): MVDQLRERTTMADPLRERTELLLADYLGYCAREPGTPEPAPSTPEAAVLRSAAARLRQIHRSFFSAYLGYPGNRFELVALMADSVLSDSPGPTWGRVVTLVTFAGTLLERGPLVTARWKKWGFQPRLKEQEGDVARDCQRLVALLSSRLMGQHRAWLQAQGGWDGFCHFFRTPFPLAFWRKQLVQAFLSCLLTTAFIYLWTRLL

[2] = target: T2, Estrogen receptor beta (Homo sapiens, UniProt Q92731);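 further: recombinant ER-beta bound to coactivator SRC1 peptide in presence of estradiol agonist; inhibitors block coactivator peptide binding and lower the FRET signal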
T2 sequence (Q92731 whole entry): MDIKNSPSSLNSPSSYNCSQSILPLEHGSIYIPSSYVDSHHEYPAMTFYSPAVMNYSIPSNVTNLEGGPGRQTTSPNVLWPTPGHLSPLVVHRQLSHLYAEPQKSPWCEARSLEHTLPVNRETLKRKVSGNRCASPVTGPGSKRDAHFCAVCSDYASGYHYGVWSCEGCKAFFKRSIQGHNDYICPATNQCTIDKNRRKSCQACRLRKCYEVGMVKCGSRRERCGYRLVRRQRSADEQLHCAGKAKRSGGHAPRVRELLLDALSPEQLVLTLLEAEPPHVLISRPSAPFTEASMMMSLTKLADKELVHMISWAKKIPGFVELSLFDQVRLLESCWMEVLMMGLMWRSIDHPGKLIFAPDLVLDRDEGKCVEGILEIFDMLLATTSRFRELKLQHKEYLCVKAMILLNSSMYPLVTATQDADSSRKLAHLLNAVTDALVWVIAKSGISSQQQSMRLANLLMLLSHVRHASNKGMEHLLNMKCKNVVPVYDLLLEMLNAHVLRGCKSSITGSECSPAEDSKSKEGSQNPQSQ

[3] = target: T2, Estrogen receptor beta; assay: blockers of SRC-3 recruitment to ERβ – biochemical, ELISA, streptavidin-HRP readout, orthogonal assay, confirmation (AID 1060)
[4] = HIV-1 Vif–A3G interaction blockers – biochemical, TR-FRET, GST-Vif 1-94, biotin-A3G peptide, dose response retest, primary screen (AID 1117319); assay type: functional;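 further: TR-FRET signal of purified GST-Vif binding a biotinylated A3G peptide; inhibitors lower the FRET signal by blocking Vif and A3G binding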
[5] = target: Cytochrome P450 2C19 (Homo sapiens, UniProt P33261); assay: qHTS Assay for Inhibitors and Substrates of Cytochrome P450 2C19. [Related pubchem assays: 410 ]; assay type: ADME; details: read-out: Potency
Sequence of Cytochrome P450 2C19 (P33261 whole entry): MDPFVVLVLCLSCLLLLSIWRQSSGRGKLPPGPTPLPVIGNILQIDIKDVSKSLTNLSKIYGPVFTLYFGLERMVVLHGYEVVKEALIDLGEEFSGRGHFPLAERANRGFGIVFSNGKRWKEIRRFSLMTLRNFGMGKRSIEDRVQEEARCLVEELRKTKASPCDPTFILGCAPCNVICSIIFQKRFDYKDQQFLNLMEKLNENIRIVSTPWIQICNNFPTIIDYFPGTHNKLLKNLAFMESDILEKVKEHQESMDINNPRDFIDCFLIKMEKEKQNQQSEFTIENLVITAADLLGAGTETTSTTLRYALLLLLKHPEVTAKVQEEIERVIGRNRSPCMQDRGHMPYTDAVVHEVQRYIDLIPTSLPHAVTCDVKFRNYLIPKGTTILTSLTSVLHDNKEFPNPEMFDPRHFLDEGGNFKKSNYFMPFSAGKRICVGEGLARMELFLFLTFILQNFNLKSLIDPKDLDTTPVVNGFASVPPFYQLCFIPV

[6] = target: Peroxisome proliferator-activated receptor gamma/Nuclear receptor coactivator 2 (Homo sapiens, UniProt P37231); assay type: functional;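 further: agonist potency for raising coactivator recruitment to the receptor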
Sequence of Peroxisome proliferator-activated receptor gamma/Nuclear receptor coactivator 2 (P37231 whole entry): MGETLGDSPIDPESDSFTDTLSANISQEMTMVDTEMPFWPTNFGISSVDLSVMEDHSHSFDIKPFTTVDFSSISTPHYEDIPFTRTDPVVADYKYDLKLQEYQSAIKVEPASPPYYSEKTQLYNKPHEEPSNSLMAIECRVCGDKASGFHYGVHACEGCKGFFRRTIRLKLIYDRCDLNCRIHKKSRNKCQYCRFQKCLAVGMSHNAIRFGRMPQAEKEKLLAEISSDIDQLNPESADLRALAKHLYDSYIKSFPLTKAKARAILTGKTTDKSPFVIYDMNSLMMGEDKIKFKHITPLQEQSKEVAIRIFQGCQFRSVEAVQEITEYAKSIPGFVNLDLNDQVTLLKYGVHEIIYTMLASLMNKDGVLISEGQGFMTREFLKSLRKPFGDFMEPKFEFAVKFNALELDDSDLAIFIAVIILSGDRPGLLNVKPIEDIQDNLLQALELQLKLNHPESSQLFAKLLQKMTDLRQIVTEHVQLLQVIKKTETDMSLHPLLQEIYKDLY
Sequence of Peroxisome proliferator-activated receptor gamma/Nuclear receptor coactivator 2 (Q15596 whole entry, further chain): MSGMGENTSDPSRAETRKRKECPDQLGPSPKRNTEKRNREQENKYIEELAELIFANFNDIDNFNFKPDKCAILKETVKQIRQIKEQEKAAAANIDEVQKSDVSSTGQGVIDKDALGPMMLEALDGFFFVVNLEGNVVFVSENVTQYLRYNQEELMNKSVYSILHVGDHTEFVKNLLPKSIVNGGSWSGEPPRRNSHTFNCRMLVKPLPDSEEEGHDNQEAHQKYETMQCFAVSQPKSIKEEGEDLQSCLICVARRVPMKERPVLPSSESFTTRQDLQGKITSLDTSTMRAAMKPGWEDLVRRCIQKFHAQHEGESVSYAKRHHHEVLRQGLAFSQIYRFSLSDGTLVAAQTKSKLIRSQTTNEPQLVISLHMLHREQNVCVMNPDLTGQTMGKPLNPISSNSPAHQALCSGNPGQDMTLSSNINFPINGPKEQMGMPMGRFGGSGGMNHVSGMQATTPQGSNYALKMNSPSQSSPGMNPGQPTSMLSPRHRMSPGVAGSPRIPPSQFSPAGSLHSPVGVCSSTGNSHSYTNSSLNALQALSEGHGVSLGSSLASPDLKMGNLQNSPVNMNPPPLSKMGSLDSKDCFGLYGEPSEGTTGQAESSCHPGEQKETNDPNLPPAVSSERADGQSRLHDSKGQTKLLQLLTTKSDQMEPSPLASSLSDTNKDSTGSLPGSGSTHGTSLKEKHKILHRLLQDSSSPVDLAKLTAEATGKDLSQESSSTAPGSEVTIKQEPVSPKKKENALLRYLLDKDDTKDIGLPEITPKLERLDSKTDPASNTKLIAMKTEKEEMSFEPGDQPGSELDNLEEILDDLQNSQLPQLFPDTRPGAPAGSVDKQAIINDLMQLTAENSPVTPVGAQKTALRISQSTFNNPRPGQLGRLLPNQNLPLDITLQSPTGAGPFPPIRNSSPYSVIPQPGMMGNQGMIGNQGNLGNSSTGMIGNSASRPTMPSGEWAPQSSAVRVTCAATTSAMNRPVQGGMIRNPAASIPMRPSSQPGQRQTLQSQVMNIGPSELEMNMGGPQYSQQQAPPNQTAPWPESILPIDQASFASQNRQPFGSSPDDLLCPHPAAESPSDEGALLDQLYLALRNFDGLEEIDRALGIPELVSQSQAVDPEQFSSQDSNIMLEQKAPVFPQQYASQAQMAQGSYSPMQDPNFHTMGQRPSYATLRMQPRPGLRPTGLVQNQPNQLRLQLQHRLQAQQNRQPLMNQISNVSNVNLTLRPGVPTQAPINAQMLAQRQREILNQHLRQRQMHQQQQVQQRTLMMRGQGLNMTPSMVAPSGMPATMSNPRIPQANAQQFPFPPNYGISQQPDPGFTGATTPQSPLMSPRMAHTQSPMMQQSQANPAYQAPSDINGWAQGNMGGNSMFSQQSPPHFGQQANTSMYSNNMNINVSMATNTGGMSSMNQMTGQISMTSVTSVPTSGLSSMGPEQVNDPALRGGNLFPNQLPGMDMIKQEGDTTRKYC

[7] = target: Peroxisome proliferator-activated receptor gamma/Nuclear receptor coactivator 1 (Homo sapiens, UniProt P37231); assay type: functional;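 further: agonist potency as compounds enhance coactivator SRC-1 recruitment to PPARgamma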
Sequence of Peroxisome proliferator-activated receptor gamma/Nuclear receptor coactivator 1 (P37231 whole entry): as the sequence (P37231 whole entry) above
Sequence of Peroxisome proliferator-activated receptor gamma/Nuclear receptor coactivator 1 (Q15788 whole entry, further chain): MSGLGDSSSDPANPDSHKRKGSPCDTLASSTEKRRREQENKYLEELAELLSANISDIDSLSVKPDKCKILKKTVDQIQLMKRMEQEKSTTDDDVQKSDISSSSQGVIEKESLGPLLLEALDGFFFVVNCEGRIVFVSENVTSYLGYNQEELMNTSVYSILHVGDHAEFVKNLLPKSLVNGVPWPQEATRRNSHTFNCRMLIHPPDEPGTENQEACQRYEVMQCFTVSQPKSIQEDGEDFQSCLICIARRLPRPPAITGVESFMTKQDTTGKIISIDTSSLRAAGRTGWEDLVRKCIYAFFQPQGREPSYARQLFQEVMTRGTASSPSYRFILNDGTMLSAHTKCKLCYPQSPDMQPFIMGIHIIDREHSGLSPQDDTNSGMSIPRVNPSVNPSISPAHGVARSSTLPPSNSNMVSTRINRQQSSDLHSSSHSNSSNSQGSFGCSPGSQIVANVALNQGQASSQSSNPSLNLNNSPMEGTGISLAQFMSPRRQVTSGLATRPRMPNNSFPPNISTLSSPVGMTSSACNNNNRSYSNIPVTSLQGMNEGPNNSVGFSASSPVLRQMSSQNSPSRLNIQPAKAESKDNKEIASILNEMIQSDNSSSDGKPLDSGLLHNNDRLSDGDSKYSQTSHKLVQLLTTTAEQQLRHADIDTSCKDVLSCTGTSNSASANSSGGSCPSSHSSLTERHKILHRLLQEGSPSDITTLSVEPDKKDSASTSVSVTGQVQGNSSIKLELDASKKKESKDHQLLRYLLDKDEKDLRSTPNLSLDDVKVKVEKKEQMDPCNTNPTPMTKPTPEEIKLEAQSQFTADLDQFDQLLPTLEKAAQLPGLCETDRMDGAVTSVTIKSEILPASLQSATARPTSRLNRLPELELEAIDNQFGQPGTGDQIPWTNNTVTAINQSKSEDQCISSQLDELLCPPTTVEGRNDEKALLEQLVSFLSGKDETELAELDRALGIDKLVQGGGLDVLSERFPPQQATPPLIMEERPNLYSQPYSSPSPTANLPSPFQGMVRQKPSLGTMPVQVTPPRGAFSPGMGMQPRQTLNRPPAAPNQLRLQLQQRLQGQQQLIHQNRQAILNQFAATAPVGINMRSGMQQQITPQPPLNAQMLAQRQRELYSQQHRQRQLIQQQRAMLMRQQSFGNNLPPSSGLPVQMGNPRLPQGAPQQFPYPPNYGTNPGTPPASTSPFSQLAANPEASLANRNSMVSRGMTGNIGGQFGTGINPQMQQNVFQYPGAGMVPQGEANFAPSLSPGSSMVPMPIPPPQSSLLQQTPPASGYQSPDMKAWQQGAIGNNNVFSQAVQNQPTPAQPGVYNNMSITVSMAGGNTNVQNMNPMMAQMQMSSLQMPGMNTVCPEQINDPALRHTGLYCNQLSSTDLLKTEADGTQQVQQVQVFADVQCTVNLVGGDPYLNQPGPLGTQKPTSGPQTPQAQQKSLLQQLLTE

[8] = target: Peroxisome proliferator-activated receptor gamma/Nuclear receptor coactivator 3 (Homo sapiens, UniProt P37231); assay type: functional;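 further: agonist potency for raising coactivator recruitment to the receptor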
[9] = target: T3, Estrogen receptor (Homo sapiens, UniProt P03372);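 further: potency for inhibiting coactivator peptide recruitment to the receptor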
T3 sequence (P03372 whole entry): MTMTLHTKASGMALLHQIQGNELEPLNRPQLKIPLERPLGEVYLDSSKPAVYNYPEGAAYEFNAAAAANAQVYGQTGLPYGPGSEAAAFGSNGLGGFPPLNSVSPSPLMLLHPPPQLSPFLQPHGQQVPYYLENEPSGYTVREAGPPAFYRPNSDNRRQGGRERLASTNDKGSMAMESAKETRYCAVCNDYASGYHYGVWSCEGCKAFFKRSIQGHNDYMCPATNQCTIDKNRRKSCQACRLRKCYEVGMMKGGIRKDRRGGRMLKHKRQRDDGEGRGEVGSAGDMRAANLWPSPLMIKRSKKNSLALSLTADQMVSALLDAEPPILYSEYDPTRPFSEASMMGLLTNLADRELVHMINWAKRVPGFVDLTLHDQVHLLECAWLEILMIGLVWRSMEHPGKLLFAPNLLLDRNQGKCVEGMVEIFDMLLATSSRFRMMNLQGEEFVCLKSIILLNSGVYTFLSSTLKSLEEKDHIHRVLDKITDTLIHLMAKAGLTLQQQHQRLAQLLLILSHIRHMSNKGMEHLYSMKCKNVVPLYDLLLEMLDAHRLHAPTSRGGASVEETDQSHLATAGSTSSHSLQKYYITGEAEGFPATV

[10] = IC50 of insulin release inhibition, rat insulinoma INS-1E line, 5 mM glucose, cell-based (AID 1117331); assay type: functional
[11] = reduced cellular PGC1a acetyl-lysine signal – cell-based, cherry-picked samples, dose response (AID 720514); assay type: functional;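 further: potency may reflect raised or lowered acetylation signal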
[12] = target: Paired box protein Pax-8 (Homo sapiens, UniProt Q06710); assay: PAX8 transcriptional activity inhibition in RMG-I – RMG-I cells, luciferase, cherry-pick, dose response (AID 687027); assay type: functional, cell-based;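 further: luciferase reporter driven by Pax8 target thyroperoxidase promoter measured by SteadyGlo luminescence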
[13] = general cell-killing toxicity readout – plate reader, dry powder samples, cytotoxicity control for PAX8 inhibitor project, dose response (AID 743021); assay type: functional, cell-based
[14] = OVCAR-3 cell viability loss – plate reader, dry powder samples, PAX8 inhibitor project, dose response (AID 743044); assay type: functional, cell-based
[15] = OVCAR8 cell viability loss – plate reader, dry powder samples, PAX8 project, dose response (AID 743197); assay type: functional, cell-based; details: OVCAR-8
[16] = Dd2 parasite growth inhibition in erythrocytes – SYBR Green, dry powder samples, set 9, dose response (AID 1159568); assay type: functional, cell-based
[17] = P. falciparum Dd2 growth inhibitors, dose response, SYBR Green, cherry-picked samples (AID 1159567); assay type: functional, cell-based
[18] = A549 cell cytotoxicity, dose response, cytotoxicity control, plate reader, cherry-pick, antagonist series (AID 743412); assay type: functional, cell-based
[19] = toxicity toward HepG2 liver cells – cell-based, plate reader, cherry-pick, antagonist series, cytotoxicity control, dose response (AID 743416); assay type: functional
[20] = blockade of melanocortin 4 receptor signaling – cell-based, plate reader, cherry pick, counter-screen for LGR2 antagonist project, dose response (AID 743444); assay type: functional;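 further: transfected HEK 293 cells stimulated with alpha-MSH peptide; potency of inhibitors of the alpha-MSH evoked signal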
[21] = T. cruzi growth inhibition in host cells, dose response, cell-based, plate reader, dry powder, set 2 (AID 652275); assay type: functional
[22] = growth inhibition of yeast DHODH-expressing 3D7 parasites – SYBR Green, dry powder samples, dose response (AID 1159570); assay type: functional, cell-based;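 further: parasite growth measured after 72 hours of compound exposure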
[23] = toxicity to human HepG2 hepatoma cells – cell-based, plate reader, dry powder samples, cytotoxicity control, dose response (AID 1159569); assay type: functional;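 further: inhibitor potency with signal falling toward the positive control level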
[24] = Dd2 malaria parasite growth inhibition potency – SYBR Green, dry powder samples, dose response (AID 1159566); assay type: functional, cell-based;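 further: potency for growth inhibition with lower SYBR green DNA signal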
[25] = growth inhibition of PfATP4-mutant resistant parasites – NITD609-resistant line, SYBR Green, dry powder, dose response (AID 1159571); assay type: functional, cell-based;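 further: parasites synchronized at ring stage by sorbitol before testing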
[26] = target: T4, Methionyl-tRNA synthetase, putative (Trypanosoma brucei brucei, UniProt Q38C91); assay type: functional, Trypanosoma brucei brucei strain 927/4 GUTat10.1
T4 sequence (Q38C91 whole entry): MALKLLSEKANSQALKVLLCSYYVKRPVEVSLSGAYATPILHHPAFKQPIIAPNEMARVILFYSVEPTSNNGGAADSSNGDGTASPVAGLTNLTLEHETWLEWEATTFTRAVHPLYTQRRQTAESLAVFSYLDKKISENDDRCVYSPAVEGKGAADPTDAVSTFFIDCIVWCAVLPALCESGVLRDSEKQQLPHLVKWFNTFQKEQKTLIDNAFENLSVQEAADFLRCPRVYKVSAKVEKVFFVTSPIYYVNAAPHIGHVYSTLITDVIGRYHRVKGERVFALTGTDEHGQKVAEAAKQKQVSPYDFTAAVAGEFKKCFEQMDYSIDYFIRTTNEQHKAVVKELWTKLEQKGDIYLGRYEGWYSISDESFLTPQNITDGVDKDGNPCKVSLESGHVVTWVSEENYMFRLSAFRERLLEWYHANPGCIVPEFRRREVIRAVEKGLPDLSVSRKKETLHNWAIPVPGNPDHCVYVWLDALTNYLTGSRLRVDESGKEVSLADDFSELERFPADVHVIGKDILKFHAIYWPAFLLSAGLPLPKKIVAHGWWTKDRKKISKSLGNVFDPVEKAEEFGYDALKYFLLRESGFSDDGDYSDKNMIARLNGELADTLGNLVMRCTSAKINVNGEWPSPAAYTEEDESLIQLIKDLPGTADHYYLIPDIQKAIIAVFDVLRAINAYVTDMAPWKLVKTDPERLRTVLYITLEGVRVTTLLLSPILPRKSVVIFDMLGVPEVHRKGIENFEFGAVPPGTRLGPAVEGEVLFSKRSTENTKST

[27] = Counterscreen for inhibitors of Trypanosoma brucei methionyl tRNA synthetase (MetRS): Luminescence-based cell-based high throughput dose response assay to identify compounds that are cytotoxic to Jurkat human T lymphocyte cells.; assay type: functional
[28] = target: T4, Methionyl-tRNA synthetase, putative; assay type: functional, Trypanosoma brucei brucei strain 927/4 GUTat10.1; remark: listed apart in the source
[29] = target: T5, DNA repair protein RAD52 homolog (Homo sapiens, UniProt P43351); assay type: functional, biochemical
T5 sequence (P43351 whole entry): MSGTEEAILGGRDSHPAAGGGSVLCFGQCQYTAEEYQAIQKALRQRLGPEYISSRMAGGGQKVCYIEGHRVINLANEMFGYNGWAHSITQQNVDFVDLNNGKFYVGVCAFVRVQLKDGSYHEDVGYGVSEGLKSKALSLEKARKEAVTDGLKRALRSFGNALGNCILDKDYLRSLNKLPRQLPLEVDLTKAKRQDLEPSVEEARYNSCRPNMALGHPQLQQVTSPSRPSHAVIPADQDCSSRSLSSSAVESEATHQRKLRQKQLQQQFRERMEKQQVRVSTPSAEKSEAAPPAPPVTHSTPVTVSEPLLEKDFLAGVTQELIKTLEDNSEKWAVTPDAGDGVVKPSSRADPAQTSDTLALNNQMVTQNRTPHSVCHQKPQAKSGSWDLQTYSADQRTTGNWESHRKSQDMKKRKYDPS

IC50 [1]: 62.5 µM (inactive)
IC50 [2]: 31 µM (not active)
IC50 [3]: 14.7 µM (not active)
IC50 [4]: > 100 µM (active)
Structure (SMILES): CCc1ccccc1NC(=O)c1cc2ncc(Br)cn2n1

AC50 [5]: 3.98 µM (inconclusive)
Structure (SMILES): CC(=O)c1ccc(OC2C=CC(C#Cc3ccc(Br)cc3)OC2CO)cc1 (stereo not drawn)

AC50 [5]: 7.94 µM (inconclusive)
Structure (SMILES): CCCCC#CC1C=CC(OC(C)=O)C(COC(C)=O)O1 (stereo not drawn)

EC50 [6]: > 79.4 µM (not active)
EC50 [7]: > 79.4 µM (not active)
EC50 [8]: > 79.4 µM (not active)
Structure (SMILES): O=C(C1=C[C@@H](c2ccc(C(F)(F)F)cc2)C[C@@H](OCCCCO)O1)N1CCN(Cc2ccc3c(c2)OCO3)CC1

EC50 [6]: > 79.4 µM (not active)
EC50 [7]: > 79.4 µM (not active)
EC50 [8]: > 79.4 µM (not active)
Structure (SMILES): CC(C)NC(=O)NC(=O)CSc1ccccc1F

IC50 [9]: > 50 µM (not active)
IC50 [2]: 6.84 µM (active)
IC50 [3]: 6.1 µM (not active)
Structure (SMILES): Cc1ccc(C(=O)NCC(=O)OCC(=O)c2c(N)n(C)c(=O)n(C)c2=O)s1

Structure (SMILES): COc1ccc2c(c1OC)C(=O)O[C@H]2[C@@H]1c2cc3c(cc2CCN1C)OCO3
IC50 [10]: > 33.3 µM (inactive)

IC50 [4]: > 100 µM (active)
Structure (SMILES): CCOC(=O)/C(C#N)=C/c1c(OCC)n(CC)c2ccccc12

IC50 [4]: > 100 µM (active)
Structure (SMILES): CCC(C)NS(=O)(=O)c1ccc(NS(=O)(=O)c2ccc(F)cc2)cc1 (stereo not drawn)

Structure (SMILES): O=C(NC1CCCC1)C(c1ccncc1)N(Cc1ccccc1F)C(=O)c1csnn1 (stereo not drawn)
AC50 [11]: 34.7 µM (active)

Structure (SMILES): COc1ccc(S(=O)(=O)Nc2ccc3c(c2)C(=O)N([C@@H](C)CO)C[C@H](C)[C@@H](CN(C)C(=O)Nc2ccc(F)cc2)OCCCC[C@H](C)O3)cc1
AC50 [12]: 9.96 µM (active)
AC50 [13]: 59.1 µM (active)

Structure (SMILES): O=C(C[C@H]1C[C@@H]2c3cc(NS(=O)(=O)c4ccc(F)cc4)ccc3O[C@@H]2[C@@H](CO)O1)N1CCc2ccccc2C1
AC50 [12]: 3.86 µM (active)
AC50 [11]: 17.5 µM (active)
AC50 [14]: 26.1 µM (active)
AC50 [13]: 57.8 µM (active)
AC50 [15]: 23.9 µM (active)
AC50 [16]: 6.85 µM (active)
AC50 [17]: 9.73 µM (active)

Structure (SMILES): C[C@H]1CN([C@@H](C)CO)C(=O)c2cc(C#CCc3ccccc3)cnc2O[C@H]1CN(C)Cc1ccccc1
AC50 [18]: 23.3 µM (active)
AC50 [19]: > 52 µM (inactive)
AC50 [20]: 38.2 µM (active)

Structure (SMILES): CN(C)C(=O)c1ccc(-c2ccc([C@H]3[C@H](CO)N4CCCCN(C(=O)C5CCCC5)C[C@@H]34)cc2)cc1
AC50 [21]: 0.0488 µM (active)

Structure (SMILES): COc1ccc(C#Cc2cccc(-c3nc(C(=O)NCc4ccc5c(c4)OCO5)cc4c3[C@@H](CCO)N([S+]([O-])C(C)(C)C)C4)c2)cc1OC (stereo partly drawn)
AC50 [21]: 0.58 µM (active)
AC50 [22]: 2.05 µM (active)
AC50 [23]: > 100 µM (inactive)
AC50 [17]: 0.747 µM (active)
AC50 [24]: 0.838 µM (active)
AC50 [25]: 1.52 µM (active)

Structure (SMILES): CN(C)C(=O)c1cccc(-c2ccc([C@H]3[C@H](CO)N4CCCCN(CC5CCOCC5)C[C@@H]34)cc2)c1
AC50 [21]: 4.63 µM (active)

Structure (SMILES): CN(C)CC(=O)N1CCCCN2[C@@H](CO)[C@H](c3ccc(/C=C/c4ccccc4)cc3)[C@@H]2C1
AC50 [11]: 23.8 µM (active)

IC50 [2]: 12.2 µM (active)
IC50 [3]: 5.18 µM (not active)
Structure (SMILES): CC(=N)/C(C#N)=C(/O)CSc1nnc(Nc2ccccc2C)s1

Structure (SMILES): C[C@@H]1CCCCO[C@@H](CN(C)C(=O)Nc2cccc3ccccc23)[C@H](C)CN([C@H](C)CO)C(=O)c2cc(NC(=O)CCC(F)(F)F)ccc2O1
AC50 [16]: 1.08 µM (active)

Structure (SMILES): COc1ccc(NC(=O)N(C)C[C@H]2Oc3c(NC(=O)CCCCCC(=O)Nc4ccccc4N)cccc3C(=O)N([C@@H](C)CO)C[C@H]2C)cc1
AC50 [16]: 0.983 µM (active)

Structure (SMILES): COc1cc2nc(Nc3cccc(F)c3)nc(N)c2cc1OC
IC50 [26]: 18.2 µM (inactive)
IC50 [27]: 35.5 µM (inactive)
IC50 [28]: 26.2 µM (inactive)
AC50 [29]: 8.77 µM (active)
